Source: patent US8110655B2, “Method to promote hair growth and/or delay or treat hair loss by administering a TGF-β antagonist or inhibitor” (Auxagen, Inc., priority 2006, dated 2012)
Entries after “also recorded” stand apart in the source; their conditions may differ.

How the values were obtained:
[1] = tested on: full-thickness burn wounds on pig skin; experiment: Hair growth in full-thickness pig skin burn wound model; format: in vivo, pig (Yorkshire strain); settings: for hair growth, % of the original pre-burn area: topical, full-thickness burn, postburn day 30
Excerpt: TGF-β peptantagonists with amino acid sequences corresponding to residues 41-65 of TGF-β1 (SEQ ID NO: 8) and TGF-β2 (SEQ ID NO: 9), and TGF-β peptantagonist 6-β1^25 (SEQ ID NO: 7), which have additional 6 glutamate residues at the N-termini were synthesized and purified as described previously. Sterile IntraSite gel was obtained from Smith and Nephew Medical, Ltd. (UK) and mixed with TGF-β peptantagonists in phosphate-buffered saline at a ratio of 3:1 (v/v).
Female pigs (Yorkshire strain, house inbred and specific pathogen-free) weighing 20-25 kg were used in the experiments. The pigs were housed in individual rooms. They were fed standard laboratory chow and water ad libitum. All study protocols were reviewed and approved by the respective institutional animal care committees.
Four pigs weighing 20-25 kg were anesthetized by intramuscular injection of ketamine (5 mg/kg), strenil (cazaporonum) (20 mg/kg), and atropine ([…]). Six uniform burn wounds (110° C., 30 s) were then made symmetrically on the back of each pig using a modified soldering iron with a flat contact area of 20 cm^2. […] After wounding, IntraSite gels containing 6-E-β1^25 and buffer vehicle (as control) were applied to the pig burn wounds. All wounds were dressed with paraffin gauze. TGF-β peptantagonist gel or control gel was applied to the wounds every 2 days for the first 10 days and twice a week for the next 30 days. All wounds were cleaned and measured before each application of the IntraSite gel.
Hair growth was assessed by measuring hair number and hair length in the burn lesion and around the lesion area. Hair growth was monitored every 2 days for the first 10 days and twice a week for 30 more days. Hair growth expressed as a percent of the original wound size was calculated.
The pig model is commonly used in skin injury (e.g., burn) experiments because porcine skin is anatomically very similar to human skin. It was used to determine the ability of 6-E-β1^25 peptantagonist to rescue or restore hair follicles and to promote hair growth in a standardized burn injury. Four pigs weighing 20-25 kg were anesthetized by intramuscular injection of ketamine (5 mg/kg). A soldering iron with a flat contact area of ˜20 cm^2 was used to generate full-thickness burn wounds (110° C., 30 s) at standard sites on the skin of the back. Six thermal burns (three on each side) were created on each pig. After wounding, two lesions were treated with a thin layer of IntraSite gel containing 6-E-β1^25 (SEQ ID NO: 7) (0.15 and 0.6 mM); two received gel alone and two received no topical applications. All wounds were then bandaged and protected from potential contact irritation with a fixed frame. 6-E-β1^25 (SEQ ID NO: 7) and vehicle gels were applied every 2 days for the first 10 days and twice a week for the next 30 days, at which time hair growth was measured and photographed. Each animal served as its own control. […] At 0.15 and 0.6 mM, 6-E-β1^25 (SEQ ID NO: 7) promoted hair growth of 5-10 and 30-40% of the original pre-burn area, respectively.

TGF-β = TGF-β antagonist activity of C44S/C48S variants (test not specified); settings: C44S/C48S versions versus parent peptides
Excerpt: In another embodiment of the invention variants of peptantagonists β3^25 (41-65) (SEQ ID NO: 4), β2^25 (41-65) (SEQ ID NO: 5), and β3^25 (41-65) (SEQ ID NO: 6), are provided in which cysteine-44 and cysteine-48 were replaced by serine residues.

[2] = tested on: TGF-β receptors in mink lung epithelial cells; settings: earlier finding of the inventors (U.S. Pat. No. 6,500,920); cited from earlier work
[3] = tested on: mink lung epithelial cells; settings: mink lung epithelial cells and other cell types; U.S. Pat. No. 6,500,920; cited from earlier work
PAI-1 = settings: mink lung epithelial cells and other cell types; U.S. Pat. No. 6,500,920; cited from earlier work
[4] = Stability in solution / in IntraSite gel during storage; settings: C44S/C48S versions versus parent peptides
Procedure: One milliliter of sterile 3 mM each of TGF-β peptantagonist 6-E-β1^25 (SEQ ID NO: 7), in phosphate-buffered saline (PBS) or 1 ml of sterile PBS (vehicle) was vigorously mixed with 3 ml of IntraSite gel using two 10 ml syringes connected with a three-way connector.

Row | Substance | TGF-β antagonist activity compared with the cysteine-containing peptantagonists (TGF-β) | inhibition of binding of radiolabeled TGF-β1, TGF-β2 and TGF-β3 to TGF-β receptors [2] | block of TGF-β-induced growth inhibition [3] | block of TGF-β-induced expression of PAI-1 (PAI-1) | further results
1 | 6-E-β1^25: β1^25 C44S/C48S derivitized with 6 glutamate at the N-terminus (EEEEEEANFSLGPSPYIWSLDTQYSKVLALY; six N-terminal glutamates; listed as Homo Sapiens) |  |  |  |  | hair growth, % of the original pre-burn area ([1]; 0.15 mM in IntraSite gel): 5-10%; hair growth, % of the original pre-burn area ([1]; 0.6 mM in IntraSite gel): 30-40%; promotion of hair growth (effective concentrations, dose dependence) ([1]; 0.15 and 0.6 mM in IntraSite gel): effective in promoting hair growth; also recorded: promote hair growth in a dose-dependent manner; hair growth in the area surrounding the burn wound ([1]; 0.15 and 0.6 mM, topical gel): promoted hair growth in the area surrounding the burn wound; re-epithelialization and hair growth of treated wounds ([1]; postburn day 30, topical gel): exhibited re-epithelialization and hair growth
2 | NH2-ANFSLGPSPYIWSLDTQYSKVLALY-COOH (H-ANFSLGPSPYIWSLDTQYSKVLALY-OH; listed as Homo Sapiens) [β1^25 C44S/C48S, variant of β1^25 (41-65) in which cysteine-44 and cysteine-48 were replaced by serine residues] | the same TGF-β antagonist activity |  |  |  | 
3 | β1^25 (41-65): chemically synthesized peptide corresponding to the 41st to 65th amino acid residues of TGF-β1 |  | inhibit | block | block | 
4 | β2^25 (41-65): chemically synthesized peptide corresponding to the 41st to 65th amino acid residues of TGF-β2 (ANFCAGACPYLWSSDTQHSRVLSLY; listed as Homo Sapiens) |  | inhibit | block | block | 
5 | β2^25 C44S/C48S: variant of β2^25 (41-65) in which cysteine-44 and cysteine-48 were replaced by serine residues (ANFSAGASPYLWSSDTQHSRVLSLY; listed as Homo Sapiens) | the same TGF-β antagonist activity |  |  |  | stability in solution during storage [4]: better stability in solution during storage
6 | β3^25 (41-65): chemically synthesized peptide corresponding to the 41st to 65th amino acid residues of TGF-β3 (ANFCSGPCPYLRSADTTHSTVLGLY; listed as Homo Sapiens) |  | inhibit | block | block | 
7 | β3^25 C44S/C48S: variant of β3^25 (41-65) in which cysteine-44 and cysteine-48 were replaced by serine residues (ANFSSGPSPYLRSADTTHSTVLGLY; listed as Homo Sapiens) | the same TGF-β antagonist activity |  |  |  | stability in solution during storage [4]: better stability in solution during storage
